Source: PMC8347686, “Thiourea Derivatives, Simple in Structure but Efficient Enzyme Inhibitors and Mercury Sensors” (Molecules, 2021)

Target: T1, BChE (Equus caballus, UniProt P81908)
T1 construct: The enzyme AChE is derived from Electric eel and BChE from equine serum; from tissue; host or cells: equine serum
Test: Ellman's assay, BChE inhibition
Type: biochemical
Conditions: not given
Method: (§1) The enzyme AChE is derived from Electric eel and BChE from equine serum. Buffer of phosphate, 0.1 M at pH 8.0 was prepared to whom varied concentration ([…]–1000 μg/mL) of the respective compound was added. The solution of AChE was diluted to 0.03 U/mL from 518 U/mg, similarly BChE from 7–16 U/mg to 0.01 U/mL at the given pH condition. Distilled water was used as solvent, for preparation of 0.5 mM acetylthiocholine iodide (ATchI), 0.2273 mM 5,5′-dithiobis-2-nitrobenzoic acid (DTNB) and 0.5 mM butyrylthiocholine iodide (BTchI). All solutions were stored at 8 °C in a refrigerator prior to performing the experiment.
(§2) Enzyme solution (5 μL), corresponding compound (205 μL), and DTNB reagent (5 μL) were mixed in a cuvette. The solution was incubated for 15 min at 30 °C followed by addition of 5 μL of the substrate solution. Absorbance of the incubated sample was measured at 412 nm by a double-beam spectrophotometer (Thermo Electron Corporation, USA) for 4 min along with the reaction time at 30 °C. The well-established Galanthamine was used as positive control and all experiments were performed in triplicate. The percent enzyme activity and enzyme inhibition by control and test samples were calculated from the rate of absorption with respect to change in time (V = ΔAbs/Δt) using the same procedure as reported previously.

T1 sequence (P81908 whole entry): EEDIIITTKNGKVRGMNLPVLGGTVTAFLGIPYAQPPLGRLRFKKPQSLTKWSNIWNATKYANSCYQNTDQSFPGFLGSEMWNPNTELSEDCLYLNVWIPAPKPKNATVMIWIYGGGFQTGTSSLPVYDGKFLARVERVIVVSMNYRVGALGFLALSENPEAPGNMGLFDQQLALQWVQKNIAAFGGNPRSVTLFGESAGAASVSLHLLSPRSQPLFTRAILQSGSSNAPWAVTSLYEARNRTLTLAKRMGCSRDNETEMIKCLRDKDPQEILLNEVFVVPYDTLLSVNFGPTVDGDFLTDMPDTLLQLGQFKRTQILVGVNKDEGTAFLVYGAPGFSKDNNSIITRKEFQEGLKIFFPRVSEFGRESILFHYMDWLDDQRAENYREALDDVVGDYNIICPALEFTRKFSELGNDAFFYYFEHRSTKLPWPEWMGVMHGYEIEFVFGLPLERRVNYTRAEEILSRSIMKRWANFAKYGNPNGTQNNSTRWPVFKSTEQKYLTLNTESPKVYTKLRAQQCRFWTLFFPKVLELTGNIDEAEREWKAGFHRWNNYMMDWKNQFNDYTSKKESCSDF

SMILES	IC50 [µM]
S=C(Nc1ccccc1)Nc1ccc(Cl)cc1 [Compound 6, 1-(4-chlorophenyl)-3-phenylthiourea]	1010
S=C(Nc1cccc(Cl)c1)NC1CCCCC1 [Compound 3, 1-(3-chlorophenyl)-3-cyclohexylthiourea]	223
CC(C)(C)NC(=S)NC1CCCCC1 [Compound 2, 1-tert-butyl-3-cyclohexylthiourea]	863
CC(C)CNC(=S)NC1CCCCC1 [Compound 1, 1-isobutyl-3-cyclohexylthiourea]	392
CCCCN(CCCC)C(=S)Nc1ccccc1 [Compound 4, 1-(1,1-dibutyl)-3-phenylthiourea]	238
S=C(Nc1ccccc1)Nc1ccccc1Cl [Compound 5, 1-(2-chlorophenyl)-3-phenylthiourea]	1180

Same assay, conditions: Conc. 31.5 µg/mL

SMILES	inhibition at 31.5 µg/mL [%]
CCCCN(CCCC)C(=S)Nc1ccccc1 [Compound 4, 1-(1,1-dibutyl)-3-phenylthiourea]	47.3 ± 0.7

Same assay, conditions: Conc. 62.5 µg/mL

SMILES	inhibition at 62.5 µg/mL [%]
S=C(Nc1ccccc1)Nc1ccc(Cl)cc1 [Compound 6, 1-(4-chlorophenyl)-3-phenylthiourea]	33 ± 1.15
S=C(Nc1cccc(Cl)c1)NC1CCCCC1 [Compound 3, 1-(3-chlorophenyl)-3-cyclohexylthiourea]	49.9 ± 0.65
CC(C)(C)NC(=S)NC1CCCCC1 [Compound 2, 1-tert-butyl-3-cyclohexylthiourea]	41.3 ± 1.01
CC(C)CNC(=S)NC1CCCCC1 [Compound 1, 1-isobutyl-3-cyclohexylthiourea]	46.9 ± 0.42
CCCCN(CCCC)C(=S)Nc1ccccc1 [Compound 4, 1-(1,1-dibutyl)-3-phenylthiourea]	53.5 ± 0.9
S=C(Nc1ccccc1)Nc1ccccc1Cl [Compound 5, 1-(2-chlorophenyl)-3-phenylthiourea]	31.7 ± 0.61

Same assay, conditions: Conc. 125 µg/mL

SMILES	inhibition at 125 µg/mL [%]
S=C(Nc1ccccc1)Nc1ccc(Cl)cc1 [Compound 6, 1-(4-chlorophenyl)-3-phenylthiourea]	42.7 ± 0.89
S=C(Nc1cccc(Cl)c1)NC1CCCCC1 [Compound 3, 1-(3-chlorophenyl)-3-cyclohexylthiourea]	57.2 ± 0.57
CC(C)(C)NC(=S)NC1CCCCC1 [Compound 2, 1-tert-butyl-3-cyclohexylthiourea]	46.7 ± 0.78
CC(C)CNC(=S)NC1CCCCC1 [Compound 1, 1-isobutyl-3-cyclohexylthiourea]	56.4 ± 0.63
CCCCN(CCCC)C(=S)Nc1ccccc1 [Compound 4, 1-(1,1-dibutyl)-3-phenylthiourea]	77.4 ± 1.7
S=C(Nc1ccccc1)Nc1ccccc1Cl [Compound 5, 1-(2-chlorophenyl)-3-phenylthiourea]	37.5 ± 0.5

Same assay, conditions: Conc. 250 µg/mL

SMILES	inhibition at 250 µg/mL [%]
S=C(Nc1ccccc1)Nc1ccc(Cl)cc1 [Compound 6, 1-(4-chlorophenyl)-3-phenylthiourea]	49 ± 0.58
S=C(Nc1cccc(Cl)c1)NC1CCCCC1 [Compound 3, 1-(3-chlorophenyl)-3-cyclohexylthiourea]	65.5 ± 1.04
CC(C)(C)NC(=S)NC1CCCCC1 [Compound 2, 1-tert-butyl-3-cyclohexylthiourea]	51.4 ± 1.65
CC(C)CNC(=S)NC1CCCCC1 [Compound 1, 1-isobutyl-3-cyclohexylthiourea]	61 ± 0.33
CCCCN(CCCC)C(=S)Nc1ccccc1 [Compound 4, 1-(1,1-dibutyl)-3-phenylthiourea]	89.8 ± 1.5
S=C(Nc1ccccc1)Nc1ccccc1Cl [Compound 5, 1-(2-chlorophenyl)-3-phenylthiourea]	44.5 ± 0.64

Same assay, conditions: Conc. 500 µg/mL

SMILES	inhibition at 500 µg/mL [%]
S=C(Nc1ccccc1)Nc1ccc(Cl)cc1 [Compound 6, 1-(4-chlorophenyl)-3-phenylthiourea]	63.03 ± 0.23
S=C(Nc1cccc(Cl)c1)NC1CCCCC1 [Compound 3, 1-(3-chlorophenyl)-3-cyclohexylthiourea]	71.3 ± 1.11
CC(C)(C)NC(=S)NC1CCCCC1 [Compound 2, 1-tert-butyl-3-cyclohexylthiourea]	57.9 ± 0.97
CC(C)CNC(=S)NC1CCCCC1 [Compound 1, 1-isobutyl-3-cyclohexylthiourea]	66.2 ± 0.73
CCCCN(CCCC)C(=S)Nc1ccccc1 [Compound 4, 1-(1,1-dibutyl)-3-phenylthiourea]	94.4 ± 0.5
S=C(Nc1ccccc1)Nc1ccccc1Cl [Compound 5, 1-(2-chlorophenyl)-3-phenylthiourea]	63.86 ± 0.6

Same assay, conditions: Conc. 1000 µg/mL

SMILES	inhibition at 1000 µg/mL [%]
S=C(Nc1ccccc1)Nc1ccc(Cl)cc1 [Compound 6, 1-(4-chlorophenyl)-3-phenylthiourea]	71.33 ± 0.49
S=C(Nc1cccc(Cl)c1)NC1CCCCC1 [Compound 3, 1-(3-chlorophenyl)-3-cyclohexylthiourea]	76.7 ± 0.66
CC(C)(C)NC(=S)NC1CCCCC1 [Compound 2, 1-tert-butyl-3-cyclohexylthiourea]	65.2 ± 0.72
CC(C)CNC(=S)NC1CCCCC1 [Compound 1, 1-isobutyl-3-cyclohexylthiourea]	74.4 ± 0.68
CCCCN(CCCC)C(=S)Nc1ccccc1 [Compound 4, 1-(1,1-dibutyl)-3-phenylthiourea]	98
S=C(Nc1ccccc1)Nc1ccccc1Cl [Compound 5, 1-(2-chlorophenyl)-3-phenylthiourea]	71.6 ± 0.74

Tested on: mushroom tyrosinase
Test: not given
Parameters: method as in PMID 21978680, PMID 28904627
Conditions: ref [6],[42]; cited from earlier work

SMILES	potency as mushroom tyrosinase inhibitor
S=C(Nc1ccccc1)Nc1ccc(Cl)cc1 [Compound 6, 1-(4-chlorophenyl)-3-phenylthiourea]	moderate potency

Tested on: melanin B16 cells
Test: not given
Parameters: method as in PMID 21978680, PMID 28904627
Conditions: ref [6],[42]; read-out: IC50 as melanin B16 inhibitor; cited from earlier work

SMILES	IC50 [µM]
S=C(Nc1ccccc1)Nc1ccc(Cl)cc1 [Compound 6, 1-(4-chlorophenyl)-3-phenylthiourea]	3.4

Target: T2, AChE (Electrophorus electricus, UniProt O42275)
T2 construct: The enzyme AChE is derived from Electric eel and BChE from equine serum; from tissue
Test: biochemical
Conditions: not given
Method: as §1, §2

T2 sequence (O42275 24-633): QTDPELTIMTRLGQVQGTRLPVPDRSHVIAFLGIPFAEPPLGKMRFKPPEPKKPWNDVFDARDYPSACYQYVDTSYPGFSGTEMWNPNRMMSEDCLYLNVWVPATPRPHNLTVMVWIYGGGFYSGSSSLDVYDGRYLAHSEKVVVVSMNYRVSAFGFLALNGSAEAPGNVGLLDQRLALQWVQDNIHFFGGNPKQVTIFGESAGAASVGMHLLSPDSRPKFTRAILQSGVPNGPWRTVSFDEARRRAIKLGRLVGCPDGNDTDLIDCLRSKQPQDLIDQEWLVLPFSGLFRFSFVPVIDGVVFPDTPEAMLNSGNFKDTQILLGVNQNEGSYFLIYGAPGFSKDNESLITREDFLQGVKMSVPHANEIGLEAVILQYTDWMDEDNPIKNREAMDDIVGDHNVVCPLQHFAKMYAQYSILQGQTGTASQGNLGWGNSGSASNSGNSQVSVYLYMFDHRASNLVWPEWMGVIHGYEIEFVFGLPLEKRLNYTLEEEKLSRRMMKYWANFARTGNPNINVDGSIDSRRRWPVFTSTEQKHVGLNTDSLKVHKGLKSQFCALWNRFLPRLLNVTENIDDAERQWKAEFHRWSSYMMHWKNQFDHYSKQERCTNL

SMILES	IC50 [µM]
S=C(Nc1ccccc1)Nc1ccc(Cl)cc1 [Compound 6, 1-(4-chlorophenyl)-3-phenylthiourea]	1080
S=C(Nc1cccc(Cl)c1)NC1CCCCC1 [Compound 3, 1-(3-chlorophenyl)-3-cyclohexylthiourea]	186
CC(C)(C)NC(=S)NC1CCCCC1 [Compound 2, 1-tert-butyl-3-cyclohexylthiourea]	1400
CC(C)CNC(=S)NC1CCCCC1 [Compound 1, 1-isobutyl-3-cyclohexylthiourea]	415
CCCCN(CCCC)C(=S)Nc1ccccc1 [Compound 4, 1-(1,1-dibutyl)-3-phenylthiourea]	219
S=C(Nc1ccccc1)Nc1ccccc1Cl [Compound 5, 1-(2-chlorophenyl)-3-phenylthiourea]	1310

Same assay, conditions: Conc. 31.5 µg/mL

SMILES	inhibition at 31.5 µg/mL [%]
CCCCN(CCCC)C(=S)Nc1ccccc1 [Compound 4, 1-(1,1-dibutyl)-3-phenylthiourea]	39 ± 0.88

Same assay, conditions: Conc. 62.5 µg/mL

SMILES	inhibition at 62.5 µg/mL [%]
S=C(Nc1ccccc1)Nc1ccc(Cl)cc1 [Compound 6, 1-(4-chlorophenyl)-3-phenylthiourea]	31.9 ± 0.48
S=C(Nc1cccc(Cl)c1)NC1CCCCC1 [Compound 3, 1-(3-chlorophenyl)-3-cyclohexylthiourea]	51.9 ± 1.16
CC(C)(C)NC(=S)NC1CCCCC1 [Compound 2, 1-tert-butyl-3-cyclohexylthiourea]	38.7 ± 0.68
CC(C)CNC(=S)NC1CCCCC1 [Compound 1, 1-isobutyl-3-cyclohexylthiourea]	46.52 ± 0.38
CCCCN(CCCC)C(=S)Nc1ccccc1 [Compound 4, 1-(1,1-dibutyl)-3-phenylthiourea]	47.9 ± 0.47
S=C(Nc1ccccc1)Nc1ccccc1Cl [Compound 5, 1-(2-chlorophenyl)-3-phenylthiourea]	29 ± 0.3

Same assay, conditions: Conc. 125 µg/mL

SMILES	inhibition at 125 µg/mL [%]
S=C(Nc1ccccc1)Nc1ccc(Cl)cc1 [Compound 6, 1-(4-chlorophenyl)-3-phenylthiourea]	39 ± 0.48
S=C(Nc1cccc(Cl)c1)NC1CCCCC1 [Compound 3, 1-(3-chlorophenyl)-3-cyclohexylthiourea]	57.34 ± 0.55
CC(C)(C)NC(=S)NC1CCCCC1 [Compound 2, 1-tert-butyl-3-cyclohexylthiourea]	44.7 ± 1.25
CC(C)CNC(=S)NC1CCCCC1 [Compound 1, 1-isobutyl-3-cyclohexylthiourea]	53.64 ± 0.16
CCCCN(CCCC)C(=S)Nc1ccccc1 [Compound 4, 1-(1,1-dibutyl)-3-phenylthiourea]	71.8 ± 1.5
S=C(Nc1ccccc1)Nc1ccccc1Cl [Compound 5, 1-(2-chlorophenyl)-3-phenylthiourea]	35.5 ± 0.5

Same assay, conditions: Conc. 250 µg/mL

SMILES	inhibition at 250 µg/mL [%]
S=C(Nc1ccccc1)Nc1ccc(Cl)cc1 [Compound 6, 1-(4-chlorophenyl)-3-phenylthiourea]	47.9 ± 0.96
S=C(Nc1cccc(Cl)c1)NC1CCCCC1 [Compound 3, 1-(3-chlorophenyl)-3-cyclohexylthiourea]	61.36 ± 0.49
CC(C)(C)NC(=S)NC1CCCCC1 [Compound 2, 1-tert-butyl-3-cyclohexylthiourea]	48 ± 0.75
CC(C)CNC(=S)NC1CCCCC1 [Compound 1, 1-isobutyl-3-cyclohexylthiourea]	57.6 ± 1.7
CCCCN(CCCC)C(=S)Nc1ccccc1 [Compound 4, 1-(1,1-dibutyl)-3-phenylthiourea]	77.8 ± 2.26
S=C(Nc1ccccc1)Nc1ccccc1Cl [Compound 5, 1-(2-chlorophenyl)-3-phenylthiourea]	41.7 ± 0.77

Same assay, conditions: Conc. 500 µg/mL

SMILES	inhibition at 500 µg/mL [%]
S=C(Nc1ccccc1)Nc1ccc(Cl)cc1 [Compound 6, 1-(4-chlorophenyl)-3-phenylthiourea]	61.6 ± 1.34
S=C(Nc1cccc(Cl)c1)NC1CCCCC1 [Compound 3, 1-(3-chlorophenyl)-3-cyclohexylthiourea]	67.39 ± 0.49
CC(C)(C)NC(=S)NC1CCCCC1 [Compound 2, 1-tert-butyl-3-cyclohexylthiourea]	56.3 ± 1.06
CC(C)CNC(=S)NC1CCCCC1 [Compound 1, 1-isobutyl-3-cyclohexylthiourea]	63.94 ± 0.45
CCCCN(CCCC)C(=S)Nc1ccccc1 [Compound 4, 1-(1,1-dibutyl)-3-phenylthiourea]	85.4 ± 0.2
S=C(Nc1ccccc1)Nc1ccccc1Cl [Compound 5, 1-(2-chlorophenyl)-3-phenylthiourea]	59.7 ± 0.61

Same assay, conditions: Conc. 1000 µg/mL

SMILES	inhibition at 1000 µg/mL [%]
S=C(Nc1ccccc1)Nc1ccc(Cl)cc1 [Compound 6, 1-(4-chlorophenyl)-3-phenylthiourea]	69.6 ± 1.12
CC(C)(C)NC(=S)NC1CCCCC1 [Compound 2, 1-tert-butyl-3-cyclohexylthiourea]	63.3 ± 0.98
CC(C)CNC(=S)NC1CCCCC1 [Compound 1, 1-isobutyl-3-cyclohexylthiourea]	69.47 ± 0.22
CCCCN(CCCC)C(=S)Nc1ccccc1 [Compound 4, 1-(1,1-dibutyl)-3-phenylthiourea]	93.6 ± 1.12
S=C(Nc1ccccc1)Nc1ccccc1Cl [Compound 5, 1-(2-chlorophenyl)-3-phenylthiourea]	66.79 ± 0.63
